Results reported in US10106853B2, “CUL4B as predictive biomarker for cancer treatment” (CORNELL UNIVERSITY, priority 2012, dated 2018).

How the values were obtained:
[1] = test system: γH2AX in BT474 cells; test: Western blot analysis for γH2AX; type: cell-based, Human; conditions: CPT-treated BT474 cells with CUL4B silencing via shRNA vs control; 2 μM CPT
Protocol: FIG. 3. CUL4B^k/d BT474 cells are susceptible to CPT-induced DNA damage. A) Persistent DNA damage in CPT-treated BT474-CUL4B^k/d cells. Control or CUL4B^k/d BT474 cells were treated with 2 μM of CPT for the indicated time periods, replenished with CPT-free fresh medium, incubated at 37° C. for 1 hour to repair DNA damage, and subjected to immunoblotting with the anti-γH2AX antibody to determine the extent of DNA damage. B) Immunofluorescent detection of γH2AX foci in control or CUL4B^k/d BT474 cells following CPT treatment. BT474 cells were infected with lentiviral control shRNA (shCtrl) or shCUL4B, treated with 2 μM CPT for 2 hours and replenished with CPT-free fresh medium, incubated at 37° C. for 1 hour to repair DNA damage. γH2AX foci were detected by immunofluorescent assay with the rabbit anti-γH2AX antibody and goat anti-rabbit secondary antibody conjugated with cy3 (red). Nuclei were stained with DAPI (blue). C, D) Percentage of γH2AX-positive cells and number of persistent γH2AX foci in a total of 300 γH2AX-positive cells. All values were presented as mean±S.E. Statistical significance was assessed by a two-tailed unpaired Student t-test (***: p<0.001). […]

[2] = test system: T47D cells; test: XTT assay for cytotoxic response to camptothecin, T47D; type: cell-based, Human
[3] = test system: BT474 xenograft tumors; type: in vivo, athymic Nu/J nude mice; conditions: without topotecan administration; tumor burden and excised tumor weight
Protocol: FIG. 5. CUL4B inactivation sensitized BT474 xenograft tumors to topotecan. Stable TGL-BT474 cells (BT474 cells stably expressing GFP-luciferase reporter) were established by retroviral transduction and FACS sorting. The resulting TGL-BT474 cells were infected with recombinant lentiviruses expressing non-targeting shCtrl, shCUL4A or shCUL4B, followed by selection of infected cells with 4 μg/ml puromycine for one week. A) Knockdown of endogenous CUL4A and 4B were verified by immunoblotting. B, C) 1×10^7 of control, CUL4A^k/d, or CUL4B^k/d TGL-BT474 cells were injected subcutaneously in the right flank of each athymic Nu/J nude mice, treated (i.p.) with toptoecan at a dose of 5 mg/g on every 4th day, and tumor burden was measure by bioluminescent imaging. Statistical significance in tumor burden between control and CUL4A^k/d or CUL4B^k/d xenograph are assessed by a two-tailed unpaired student t-test (***: p<0.001). D) Growth rate of control, CUL4A^k/d and CUL4B^k/d BT474 cells in vitro. The same number of control, CUL4A^k/d and CUL4B^k/d BT474 cells were seeded to 96-well plates and cell proliferation was measured using the XTT Cell Proliferation Assay Kit. The data represent the mean value of fold change of cells. Bars indicate the S.E. of six independent experiments. Statistical significance in cellular rate between control cells and CUL4A^k/d or CUL4B^k/d cells are assessed by student's t-test. E-F) Growth rate of control, CUL4A^k/d and CUL4B^k/d TGL-BT474 xenograft in vivo. 1×10^7 of control, CUL4A^k/d or CUL4B^k/d TGL-BT474 cells were injected subcutaneously in the right flank of each mouse of athymic Nu/J nude mice, and tumor burden was measured by bioluminescent imaging (E). On the 22nd day, tumors were collected, and the weight of exercised tumors was measured after mice were sacrificed (F).
The effect of CUL4B knockdown on an organism's response to CPT treatment was tested in vivo by examining the sensitivity of BT474-CUL4B^k/d, BT474-CUL4A^k/d and control BT474 xenograft tumors to topotecan treatment. Topotecan, (S)-10-[(dimethylamino)methyl]-4-ethyl-4,9-dihydroxy-1H-pyrano[3′,4′:6,7]indolizino[1,2-b]quinoline-3,14(4H,12H)-dione monohydrochloride, is an FDA-approved Top1-directed chemotherapy for the treatment of ovarian, cervical and small cell lung cancer, under the trade name Hycamtin™. Nude mice bearing BT474 xenografts on dorsal skin were treated with topotecan every four (4) days for a period of 44 days. Prior to topotecan administration, the size of the xenograft tumors were identical (FIG. 5). Topotecan was then administered via intraperitoneal injection, and tumor mass was monitors by bioluminescent imaging in four day intervals. […] To rule out the possibility that the growth rate of xenografts were altered during the CUL4B inactivation process (treatment with shRNA) the tumor mass of the three xenograft groups were measured in the absence of topotecan treatment and the weight of the exercised xenograft tumors were analyzed.
Six week old Female athymic Nu/J nude mice were purchased from Jackson Labs. Mice were housed in laminar air-flow cabinets under specific pathogen-free conditions. Nude mice were inoculated with 0.36 mg 60-day-release 17-b-estradiol pellets (Innovative Research) 24 to 48 hours before implantation of BT-474 cells. 1×10^7 BT-474 cells in 50 ul DMEM medium and 300 ul diluted BD Matrigel™ Basement Membrane Matrix (BD Bioscience, Matrix: PBS is 2:1) were injected subcutaneously in the right flank of each mouse. Tumors were detected once every four days by an IVIS Imaging System (Caliper Life Sciences). When tumors were available to be detected, mice were initially treated with topotecan. Topotecan was administered intraperitoneally on every fourth day from the initiation of therapy at doses of 5 mg/g.
The IVIS Imaging System (Caliper life sciences) was used for bioluminescent image acquisition and analysis. […]

Compound | Levels of γH2AX (Western blotting) [1] | Survival rate of CPT-treated cells ([2]; T47D cells with knockdown of CUL4A) | Cytotoxic killing by CPT (cell survival) ([2]; T47D cells with knockdown of CUL4B, CPT three days) | Growth rate of xenografts vs control [3]
CC[C@@]1(O)C(=O)OCc2c1cc1n(c2=O)Cc2cc3ccccc3nc2-1 [CPT, (S)-4-ethyl-4-hydroxy-1H-pyrano[3′,4′:6,7]indolizino[1,2-b]quinoline-3,14-(4H, 12H)-dione] | elevated | no effect | sensitized | –
shCUL4B: lentiviral shRNA CUL4B sequence purchased from Sigma Aldrich, reduces CUL4B expression (CCGGGCAGAATTTAAAGAGGGTAAACTCGAGTTTACCCTCTTTAAATTCTGCTTTTT) | – | – | – | no significant difference
